One assay deals with T1, EGFR (Homo sapiens, UniProt P00533).
T1 construct: Add 7 ug A431 cell lysate per well (EGFR source); endogenous in cells; host or cells: A431
Description: EGFR ELISA assay (in vitro kinase activity, EGFR captured from A431 cell lysate). It counts as biochemical. Also on record: concentration or dose not given beside the values. In outline: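 Receptor autophosphorylation was read by ELISA: anti-phosphotyrosine serum and an HRP-linked secondary with ABTS substrate, absorbance at 410 nm (reference 630 nm). The reaction ran 5 min with 3 µM ATP and 5 mM MnCl2 and was quenched by 20 mM EDTA. Compounds were first incubated 30 min with antibody-captured EGFR from A431 cell lysate.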

The subject of a further assay is MET. The experiment in a line: MET biochemical kinase assay. Further details: species or system human; concentration or dose not given beside the values. In outline: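 Capture ELISA: anti-rabbit Fc coat, rabbit anti-MET cytoplasmic domain pAb, lysate MET captured, washed. Compound + kinase buffer (ATP, divalent metals). Readout anti-pTyr-HRP/TMB, colorimetric.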

This is an account of results in patent EP1247803A2, “Indolinone compounds suitable for modulation of protein kinases” (Sugen, Inc., priority 1996, dated 1998).

Structures are written as SMILES.

T1 sequence (P00533 25-1210): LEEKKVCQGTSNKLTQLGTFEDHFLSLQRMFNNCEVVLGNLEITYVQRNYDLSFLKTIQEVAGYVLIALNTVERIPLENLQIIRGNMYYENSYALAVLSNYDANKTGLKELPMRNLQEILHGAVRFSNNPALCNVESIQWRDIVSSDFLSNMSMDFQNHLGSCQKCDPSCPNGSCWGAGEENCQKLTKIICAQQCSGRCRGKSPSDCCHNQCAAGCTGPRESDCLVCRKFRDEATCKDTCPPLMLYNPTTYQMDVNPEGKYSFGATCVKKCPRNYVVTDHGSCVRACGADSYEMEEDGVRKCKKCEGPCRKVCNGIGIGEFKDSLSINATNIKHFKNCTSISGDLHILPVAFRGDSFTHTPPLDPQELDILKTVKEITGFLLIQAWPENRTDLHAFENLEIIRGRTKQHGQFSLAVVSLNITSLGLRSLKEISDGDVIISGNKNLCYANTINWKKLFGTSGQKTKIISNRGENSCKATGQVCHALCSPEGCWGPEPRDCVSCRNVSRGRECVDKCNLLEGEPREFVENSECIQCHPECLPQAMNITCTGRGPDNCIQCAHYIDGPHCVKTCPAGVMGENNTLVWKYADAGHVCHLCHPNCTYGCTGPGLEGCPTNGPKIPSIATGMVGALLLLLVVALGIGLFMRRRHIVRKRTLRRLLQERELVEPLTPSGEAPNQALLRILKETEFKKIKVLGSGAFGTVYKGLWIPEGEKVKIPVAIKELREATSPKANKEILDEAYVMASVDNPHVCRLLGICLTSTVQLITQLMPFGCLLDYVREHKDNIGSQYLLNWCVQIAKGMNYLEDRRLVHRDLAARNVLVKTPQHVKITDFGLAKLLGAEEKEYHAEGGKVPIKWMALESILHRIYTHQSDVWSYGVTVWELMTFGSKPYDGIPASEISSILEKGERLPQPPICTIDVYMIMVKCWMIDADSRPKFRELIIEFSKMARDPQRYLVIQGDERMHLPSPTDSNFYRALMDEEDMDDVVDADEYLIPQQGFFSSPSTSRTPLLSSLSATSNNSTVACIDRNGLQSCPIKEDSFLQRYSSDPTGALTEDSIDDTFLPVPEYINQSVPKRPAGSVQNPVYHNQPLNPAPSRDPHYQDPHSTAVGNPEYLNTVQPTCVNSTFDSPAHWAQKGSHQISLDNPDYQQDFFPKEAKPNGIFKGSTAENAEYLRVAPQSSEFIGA

In the case of `O=C1Nc2c(Br)cc(Br)cc2C1=Cc1ccc[nH]1` [10717/A09], the “Biochem EGFR %Inhibition” value on EGFR was 37.7%. The “Met Kinase % Inhibition” value in the assay on MET is 9.4%.

Take `CCOC(=O)CCc1c(C(=O)OCC)[nH]c(C=C2C(=O)Nc3ccc(Br)c(C)c32)c1CC(=O)OCC` [10718/C05]: the “Biochem EGFR %Inhibition” value at EGFR turned out to be 10.9%. Also, in the assay on MET, the “Met Kinase % Inhibition” value turned out to be 8.7%.

`CCOC(=O)c1cc(C=C2C(=O)Nc3ccc(Br)c(C)c32)oc1C` [10718/C06]: the “Biochem EGFR %Inhibition” value at EGFR is on record as 5.6%. Besides, in the assay on MET, the “Met Kinase % Inhibition” value stood at 3.9%.

As to `COC(=O)c1[nH]c(C)c(C=C2C(=O)Nc3ccc(Br)c(C)c32)c1C(=O)OC` [10718/C07], the “Biochem EGFR %Inhibition” value on EGFR was -4.9%. Moreover, in the assay with MET, the “Met Kinase % Inhibition” value turned out to be 29.6%.

For the compound `Cc1c(Br)ccc2c1C(=Cc1ccc(Cl)c([N+](=O)[O-])c1)C(=O)N2` [10718/C08], the “Biochem EGFR %Inhibition” value at EGFR is recorded as 13.1%. Moreover, the “Met Kinase % Inhibition” value in the assay on MET is recorded as 22.7%.

As for `Cc1c(O)ccc(C=C2C(=O)Nc3ccc(Br)c(C)c32)c1O` [10718/C09], at EGFR, the “Biochem EGFR %Inhibition” value stood at 26.5%. In addition, in the assay with MET, the “Met Kinase % Inhibition” value stood at 38.2%.

In the case of `O=C1Nc2ccc(S(=O)(=O)N3CCOCC3)cc2C1=Cc1coc2c(Br)cc(Br)cc2c1=O` [10730/F09], at EGFR, the “Biochem EGFR %Inhibition” value came out at 17.9%. Besides, the “Met Kinase % Inhibition” value with MET is on record as 71.1%.

On to `COC1CC(C=C2C(=O)Nc3ccc(S(=O)(=O)N4CCOCC4)cc32)C(OC)O1` (centres unmarked) [10730/F10], for which the “Biochem EGFR %Inhibition” value on EGFR was 6.2%. In addition, the “Met Kinase % Inhibition” value in the assay on MET was 42.1%.

As for `Cc1cc(C=C2C(=O)Nc3ccc(S(=O)(=O)N4CCOCC4)cc32)oc1C` [10730/F11], at EGFR, the “Biochem EGFR %Inhibition” value is given as -24.1%. For the same compound, the “Met Kinase % Inhibition” value in the assay with MET was 53.6%.

Consider `COc1ccc(C=C2C(=O)Nc3ccc(CCCl)cc32)c(OC)c1OC` [10730/G02], for which, at EGFR, the “Biochem EGFR %Inhibition” value was found to be 20.8%. For the same compound, the “Met Kinase % Inhibition” value in the assay with MET came out at 41.1%.

Consider `COc1cc(OC)c(OC)cc1C=C1C(=O)Nc2ccc(CCCl)cc21` [10730/G03], for which the “Biochem EGFR %Inhibition” value at EGFR is recorded as -6.9%. Further, the “Met Kinase % Inhibition” value in the assay on MET stood at 43.2%.

As for `COc1cc(C=C2C(=O)Nc3ccc(CCCl)cc32)cc(OC)c1OC` [10730/G04], on EGFR, the “Biochem EGFR %Inhibition” value is -6.7%. The “Met Kinase % Inhibition” value in the assay with MET stood at 47.7%.

As to `CC(=O)n1cc(C=C2C(=O)Nc3ccc(CCCl)cc32)c2ccccc21` [10730/G05], the “Biochem EGFR %Inhibition” value at EGFR was -18.2%. Moreover, in the assay on MET, the “Met Kinase % Inhibition” value came out at 35.8%.

For the compound `O=C1Nc2ccc(CCCl)cc2C1=Cc1ccc(-c2ccccc2Cl)o1` [10730/G07], the “Biochem EGFR %Inhibition” value at EGFR is listed as 6.4%. Also, in the assay on MET, the “Met Kinase % Inhibition” value was 26.2%.

For the compound `O=C1Nc2ccc(CCCl)cc2C1=Cc1cc2ccccc2nc1Cl` [10730/G08], the “Biochem EGFR %Inhibition” value on EGFR worked out at 9.5%. Also, the “Met Kinase % Inhibition” value in the assay on MET was 16.6%.

On to `COC1CC(C=C2C(=O)Nc3ccc(CCCl)cc32)C(OC)O1` (centres unmarked) [10730/G10], for which the “Biochem EGFR %Inhibition” value at EGFR came to 3.1%. Moreover, the “Met Kinase % Inhibition” value in the assay on MET came to 42.1%.

Take `Cc1cc(C=C2C(=O)Nc3ccc(CCCl)cc32)oc1C` [10730/G11]: the “Biochem EGFR %Inhibition” value at EGFR is recorded as 26.2%. Besides, the “Met Kinase % Inhibition” value in the assay with MET turned out to be 46.1%.

`CCn1c2ccccc2c2cc(C=C3C(=O)Nc4c(Br)cc(Br)cc43)ccc21` [10731/A02]: the “Biochem EGFR %Inhibition” value at EGFR was determined as 14.8%. For the same compound, in the assay with MET, the “Met Kinase % Inhibition” value was 23.9%.

In the case of `Cc1cc2occ(C=C3C(=O)Nc4c(Br)cc(Br)cc43)c(=O)c2cc1C` [10731/A03], on EGFR, the “Biochem EGFR %Inhibition” value is 10.8%. Besides, the “Met Kinase % Inhibition” value in the assay on MET is on record as 54.8%.

Consider `C=C(C)C1CC=C(C=C2C(=O)Nc3c(Br)cc(Br)cc32)CC1` (centres unmarked) [10731/A04], for which, on EGFR, the “Biochem EGFR %Inhibition” value worked out at 20.2%. In the assay on MET, the “Met Kinase % Inhibition” value amounted to 43.6%.

Take `CC(C)c1ccc2occ(C=C3C(=O)Nc4c(Br)cc(Br)cc43)c(=O)c2c1` [10731/A05]: at EGFR, the “Biochem EGFR %Inhibition” value is given as 34.3%. In the assay on MET, the “Met Kinase % Inhibition” value is 85.8%.

Consider `Cc1ccc2occ(C=C3C(=O)Nc4c(Br)cc(Br)cc43)c(=O)c2c1` [10731/A06], for which the “Biochem EGFR %Inhibition” value at EGFR amounted to 30.1%. Moreover, the “Met Kinase % Inhibition” value in the assay with MET was found to be 53.0%.

With `O=C1Nc2c(Br)cc(Br)cc2C1=Cc1coc2ccc([N+](=O)[O-])cc2c1=O` [10731/A07], at EGFR, the “Biochem EGFR %Inhibition” value is reported as 39.4%. The “Met Kinase % Inhibition” value in the assay on MET is 49.5%.

Consider `O=C1Nc2c(Br)cc(Br)cc2C1=Cc1c[nH]c(=O)[nH]c1=O` [10731/A08], for which, at EGFR, the “Biochem EGFR %Inhibition” value was determined as 25.7%. Besides, in the assay with MET, the “Met Kinase % Inhibition” value came to 59.9%.

Take `COc1ccc2[nH]cc(C=C3C(=O)Nc4c(Br)cc(Br)cc43)c2c1` [10731/A09]: the “Biochem EGFR %Inhibition” value at EGFR is reported as 21.9%. Moreover, the “Met Kinase % Inhibition” value in the assay on MET is on record as 46.7%.

With `CN1C(=O)C(=C2C(=O)Nc3c(Br)cc(Br)cc32)c2ccccc21` [10731/A10], the “Biochem EGFR %Inhibition” value on EGFR amounted to 26.3%. In the assay on MET, the “Met Kinase % Inhibition” value is on record as 41.2%.

Regarding `CCn1c2ccccc2c2cc(C=C3C(=O)Nc4ccc(I)cc43)ccc21` [10731/B02], the “Biochem EGFR %Inhibition” value at EGFR was found to be 15.5%. For the same compound, in the assay on MET, the “Met Kinase % Inhibition” value is on record as 71.6%.

As to `Cc1cc2occ(C=C3C(=O)Nc4ccc(I)cc43)c(=O)c2cc1C` [10731/B03], on EGFR, the “Biochem EGFR %Inhibition” value came to 12.3%. Further, the “Met Kinase % Inhibition” value with MET is recorded as 60.9%.

`C=C(C)C1CC=C(C=C2C(=O)Nc3ccc(I)cc32)CC1` (centres unmarked) [10731/B04]: the “Biochem EGFR %Inhibition” value at EGFR is 31.3%. Further, in the assay on MET, the “Met Kinase % Inhibition” value is recorded as 71.0%.

For `CC(C)c1ccc2occ(C=C3C(=O)Nc4ccc(I)cc43)c(=O)c2c1` [10731/B05], the “Biochem EGFR %Inhibition” value on EGFR worked out at 35.9%. The “Met Kinase % Inhibition” value with MET was found to be 86.0%.

As for `Cc1ccc2occ(C=C3C(=O)Nc4ccc(I)cc43)c(=O)c2c1` [10731/B06], the “Biochem EGFR %Inhibition” value at EGFR is given as 37.5%. Also, the “Met Kinase % Inhibition” value in the assay with MET is on record as 56.2%.

Turning to `O=C1Nc2ccc(I)cc2C1=Cc1coc2ccc([N+](=O)[O-])cc2c1=O` [10731/B07], on EGFR, the “Biochem EGFR %Inhibition” value was 29.1%. In the assay with MET, the “Met Kinase % Inhibition” value amounted to 41.6%.

As to `O=C1Nc2ccc(I)cc2C1=Cc1c[nH]c(=O)[nH]c1=O` [10731/B08], the “Biochem EGFR %Inhibition” value at EGFR was found to be 37.2%. In addition, the “Met Kinase % Inhibition” value in the assay on MET is recorded as 57.4%.

Take `COc1ccc2[nH]cc(C=C3C(=O)Nc4ccc(I)cc43)c2c1` [10731/B09]: the “Biochem EGFR %Inhibition” value at EGFR is 15.0%. Also, in the assay on MET, the “Met Kinase % Inhibition” value is recorded as 29.6%.

With `CN1C(=O)C(=C2C(=O)Nc3ccc(I)cc32)c2ccccc21` [10731/B10], the “Biochem EGFR %Inhibition” value at EGFR is reported as 50.5%. Besides, the “Met Kinase % Inhibition” value with MET was 72.9%.

In the case of `CCn1c2ccccc2c2cc(C=C3C(=O)Nc4ccc(Br)c(C)c43)ccc21` [10731/C02], the “Biochem EGFR %Inhibition” value on EGFR is -6.9%. Besides, the “Met Kinase % Inhibition” value in the assay with MET stood at 11.1%.

`Cc1cc2occ(C=C3C(=O)Nc4ccc(Br)c(C)c43)c(=O)c2cc1C` [10731/C03]: the “Biochem EGFR %Inhibition” value on EGFR stood at 9.1%. In addition, the “Met Kinase % Inhibition” value in the assay with MET amounted to 38.7%.

Regarding `C=C(C)C1CC=C(C=C2C(=O)Nc3ccc(Br)c(C)c32)CC1` (centres unmarked) [10731/C04], the “Biochem EGFR %Inhibition” value on EGFR is recorded as 31.0%. In the assay on MET, the “Met Kinase % Inhibition” value was determined as 32.5%.

On to `Cc1c(Br)ccc2c1C(=Cc1coc3ccc(C(C)C)cc3c1=O)C(=O)N2` [10731/C05], for which the “Biochem EGFR %Inhibition” value on EGFR was determined as 35.5%. Also, in the assay with MET, the “Met Kinase % Inhibition” value came to 78.3%.

On to `Cc1ccc2occ(C=C3C(=O)Nc4ccc(Br)c(C)c43)c(=O)c2c1` [10731/C06], for which, on EGFR, the “Biochem EGFR %Inhibition” value was 23.1%. Also, the “Met Kinase % Inhibition” value in the assay on MET was 18.2%.

For the compound `Cc1c(Br)ccc2c1C(=Cc1coc3ccc([N+](=O)[O-])cc3c1=O)C(=O)N2` [10731/C07], on EGFR, the “Biochem EGFR %Inhibition” value was found to be 35.5%. Further, the “Met Kinase % Inhibition” value with MET is -11.6%.

Turning to `Cc1c(Br)ccc2c1C(=Cc1c[nH]c(=O)[nH]c1=O)C(=O)N2` [10731/C08], the “Biochem EGFR %Inhibition” value at EGFR came to 23.6%. Besides, the “Met Kinase % Inhibition” value in the assay on MET came to 25.8%.

For `COc1ccc2[nH]cc(C=C3C(=O)Nc4ccc(Br)c(C)c43)c2c1` [10731/C09], the “Biochem EGFR %Inhibition” value on EGFR came to 16.8%. Also, in the assay on MET, the “Met Kinase % Inhibition” value turned out to be 22.7%.

As to `Cc1c(Br)ccc2c1C(=C1C(=O)N(C)c3ccccc31)C(=O)N2` [10731/C10], the “Biochem EGFR %Inhibition” value at EGFR was found to be 20.9%. In addition, in the assay on MET, the “Met Kinase % Inhibition” value stood at 23.3%.

On to `CCn1c2ccccc2c2cc(C=C3C(=O)Nc4ccc(S(=O)(=O)NC)cc43)ccc21` [10731/D02], for which the “Biochem EGFR %Inhibition” value on EGFR is listed as 4.9%. Besides, the “Met Kinase % Inhibition” value with MET was determined as 8.7%.

For the compound `CNS(=O)(=O)c1ccc2c(c1)C(=Cc1coc3cc(C)c(C)cc3c1=O)C(=O)N2` [10731/D03], on EGFR, the “Biochem EGFR %Inhibition” value was 16.3%. For the same compound, in the assay on MET, the “Met Kinase % Inhibition” value was 40.2%.
